Key:
[1] = tested on: human breast adenocarcinoma (MCF-7) cells; test: Anti-proliferation test (MTT colorimetry); type: cell-based; details: MCF7, MCF-7, 72 h
Protocol: (§1) The compound of formula 1 (prepared in embodiment 1), and the compound of formula 2 (prepared in embodiment 2) are given at different concentrations to human hepatocellular carcinoma (HepG2) cells, human prostate carcinoma (PC3) cells, human cervical carcinoma (HeLa) cells, human breast adenocarcinoma (MCF-7) cells, and human leukemia (K562) cells; all the groups are incubated 72 h in an incubator containing 5% of CO2 at 37° C., and then inhabitation ratios of the compounds to the tumor cells are measured by using methyl thiazolyl tetrazolium (MTT) colorimetry, and results are shown in table 1.

[2] = tested on: human leukemia (K562) cells; test: Anti-proliferation test (MTT colorimetry); type: cell-based; details: K562, 72 h
Protocol: as §1

[3] = tested on: human hepatocellular carcinoma (HepG2) cells; test: Anti-proliferation test (MTT colorimetry); type: cell-based; details: HepG2, 72 h
Protocol: as §1

[4] = tested on: human cervical carcinoma (HeLa) cells; test: Anti-proliferation test (MTT colorimetry); type: cell-based; details: 72 h
Protocol: as §1

[5] = tested on: human prostate carcinoma (PC3) cells; test: Anti-proliferation test (MTT colorimetry); type: cell-based; details: PC-3, PC3, 72 h
Protocol: as §1

[6] = Liver microsomal metabolism stability test; details: for Remainder: mouse liver microsomes

IC50 [1]: 3.23 nM
IC50 [2]: 7.15 nM
IC50 [3]: 26 nM
IC50 [4]: 7.4 nM
IC50 [5]: 19 nM
metabolism in the liver microsomes (in words) ([6]; mouse): moderate
Remainder ([6]; incubation time 0 min): 100.00%
Remainder ([6]; incubation time 10 min): 87.76%
Remainder ([6]; incubation time 30 min): 63.76%
Remainder ([6]; incubation time 90 min): 32.23%
SMILES: CCOc1cccc(Nc2nn(C)c3c2Cc2cc(OCC)c(OCC(N)=O)cc2-3)c1 [LL-01]

Source: patent US10059674B2, “Design, synthesis, and biological evaluation of 1-methyl-1, 4-dihyrdoindeno[1,2-C]pyrazole analogues as potential anticaner agents targeting tubulin colchicine binding site” (ACT PHARMA CO., LTD., priority 2016, dated 2018)
